Target: sGC α1/β1 heterodimer stably expressed in CHO-K1 cells (CHO-K1/sGC) (Homo sapiens (Human), UniProt Q02108+Q02153)
Assay: Cell-based sGC functional assay (Cyclic GMP Assay for sGC Activator: CASA assay)
Conditions: CHO-K1, activity expressed as a percentage of compound A (standard), read-out: % Activation
From the text: Cell-based sGC Functional Assay (Cyclic GMP Assay for sGC Activator: CASA Assay)
Soluble guanylate cyclase (sGC) is a heme-containing enzyme that converts GTP to secondary messenger cGMP. Increases in cGMP levels affect several physiological processes including vasorelaxation through multiple downstream pathways. […] Heme-dependent activators (HDAs) preferentially activate sGC containing a ferrous heme group. To determine the effect of sGC activators on enzyme activity, the CASA assay was developed to monitor the generation of cGMP in a cell line that stably expresses the heterodimeric sGC protein.
Methods: A CHO-K1 cell line stably expressing the sGC α1/β1 heterodimer was generated using a standard transfection protocol. CHO-K1 cells were transfected with plasmids pIREShyghsGCα1 and pIRESneo-hsGCβ1 simultaneously using FUGENE reagent. Clones that stably express both subunits were selected with hygromycin and neomycin for ˜2 weeks. Clone #7 was chosen for the assay and was designated CHO-K1/sGC. CHO-K1/sGC cells were maintained in F-K12 medium containing 10% heat-inactivated Fetal Bovine Serum (FBS), 100 μg/mL penicillin/streptomycin, 0.5 mg/mL hygromycin and 0.25 mg/mL G418. The cells were then cryopreserved in LN2. On the day of the assay, the cells were thawed and resuspended in EBSS Assay Buffer (Sigma, E3024) supplemented with 5 mM MgCl2, 10 mM HEPES (4-(2-hydroxyethyl)piperazine-1-ethanesulfonic acid) and 0.05% BSA (bovine serum albumin) (EAB) and cell density was then adjusted to 2.25×10^5/mL with EAB. IBMX (3-isobutyl-1-methylxanthin, 0.5 mM) was added to inhibit degradation of cGMP. Compounds were diluted from DMSO stock solutions and added to the assay at a final DMSO concentration of 2.5%. Cells were pre-incubated in the presence and absence of 1 μM of Diethylenetriamine/nitric oxide adduct (DETA-NO; Sigma, 17018) for 30 min at 25° C. Compounds are subsequently added and incubated for 1 hr at 37° C. At the end of the incubation period, the reaction was terminated and the cells were lysed with the detection reagents from Cisbio Kits. The level of intracellular cGMP was determined using an HTRF-based assay kit (CisBio, 62GM2PEC), which detects the displacement of a fluorescence labeled cGMP from its specific antibody. The cGMP produced by test compounds was directly compared to the maximum cGMP production (this value was set to equal 100% activation.) of the published sGC-HDA compound A:
[drawing 491] (Example 1 in WO 2010/065275, published Jun. 10, 2010). The test compounds' activity were then expressed as a percentage of compound A, the standard in every experiment. This percent activation was calculated either in the presence or absence of DETA-NO which was then plotted. Inflection points (IP) and maximum fold induction was derived using Abase analysis software for 4P fit.

Row | SMILES | Emax [%]
1 | CC1CCC(Cn2nc(-c3nc(N)c4c(n3)NC(=O)C4(C)c3nc(CC(C)(C)C(=O)O)co3)c3ccc(F)cc32)CC1 (racemic) [Example 137AA, 3-{2-[4-amino-2-{6-fluoro-1-[4-methylcyclohexylmethyl]-1H-indazol-3-yl}-5-methyl-6-oxo-6,7-dihydro-5H-pyrrolo[2,3-d]pyrimidin-5-yl]-1,3-oxazol-4-yl}-2,2-dimethylpropanoic acid] | 92.1
2 | CC1(c2nn(C(C)(C)C(=O)O)c(=O)o2)C(=O)Nc2nc(-c3nn(CCC(F)(F)C(F)(F)F)c4cc(Cl)ccc34)nc(N)c21 (single isomer, unassigned) [Example 99B, 2-[5-{4-Amino-2-[6-chloro-1-(3,3,4,4,4-pentafluorobutyl)-1H-indazol-3-yl]-5-methyl-6-oxo-6,7-dihydro-5H-pyrrolo[2,3-d]pyrimidin-5-yl}-2-oxo-1,3,4-oxadiazol-3(2H)-yl]-2-methylpropanoic acid] | 110
3 | CC(C)(Cn1cc(C2(C)C(=O)Nc3nc(-c4nn(Cc5ccccc5F)c5cc(Cl)ccc45)nc(N)c32)nn1)C(=O)O (single isomer, unassigned) [Example 140A, 3-(4-{4-Amino-2-[6-chloro-1-(2-fluorobenzyl)-1H-indazol-3-yl]-5-methyl-6-oxo-6,7-dihydro-5H-pyrrolo[2,3-d]pyrimidin-5-yl}-1H-1,2,3-triazol-1-yl)-2,2-dimethylpropanoic acid] | 99
4 | CC1(c2cn(C(C)(C)C(=O)O)nn2)C(=O)Nc2nc(-c3nn(Cc4ccccc4F)c4cc(Cl)ccc34)nc(N)c21 (single isomer, unassigned) [Example 141A, 2-(4-{4-Amino-2-[6-chloro-1-(2-fluorobenzyl)-1H-indazol-3-yl]-5-methyl-6-oxo-6,7-dihydro-5H-pyrrolo[2,3-d]pyrimidin-5-yl}-1H-1,2,3-triazol-1-yl)-2-methylpropanoic acid] | 98.7
5 | CC(C)(Cc1coc(C2(C)C(=O)Nc3nc(-c4nn(CC5CCCCO5)c5ccccc45)nc(N)c32)n1)C(=O)O (single isomer, unassigned) [Example 230AA, 3-{2-[4-amino-5-methyl-6-oxo-2-{1-[tetrahydro-2H-pyran-2-ylmethyl]-1H-indazol-3-yl}-6,7-dihydro-5H-pyrrolo[2,3-d]pyrimidin-5-yl]-1,3-oxazol-4-yl}-2,2-dimethylpropanoic acid] | 99.1
6 | CC1(c2ccc(CCc3nn[nH]n3)cn2)C(=O)Nc2nc(-c3nn(Cc4ccccc4F)c4ccccc34)nc(N)c21 (single isomer, unassigned) [Example 246A, 5-{5-[2-(2H-tetrazol-5-yl)ethyl]pyridin-2-yl}-4-amino-2-[1-(2-fluorobenzyl)-1H-indazol-3-yl]-5-methyl-5,7-dihydro-6H-pyrrolo[2,3-d]pyrimidin-6-one] | 95.3
7 | CC1(c2ccc(CCc3nn[nH]n3)cn2)C(=O)Nc2nc(-c3nn(Cc4ccccc4F)c4cc(Cl)ccc34)nc(N)c21 (single isomer, unassigned) [Example 247A, 5-{5-[2-(2H-tetrazol-5-yl)ethyl]pyridin-2-yl}-4-amino-2-[6-chloro-1-(2-fluorobenzyl)-1H-indazol-3-yl]-5-methyl-5,7-dihydro-6H-pyrrolo[2,3-d]pyrimidin-6-one] | 86.9
8 | CC1(c2cccc(-c3nn[nH]n3)c2)C(=O)Nc2nc(-c3nn(CCC(F)(F)C(F)(F)F)c4ncccc34)nc(N)c21 (single isomer, unassigned) [Example 252B, 4-amino-5-methyl-2-[1-(3,3,4,4,4-pentafluorobutyl)-1H-pyrazolo[3,4-b]pyridin-3-yl]-5-[3-(2H-tetrazol-5-yl)phenyl]-5,7-dihydro-6H-pyrrolo[2,3-d]pyrimidin-6-one] | 87.6
9 | CC1(c2cccc(-c3nn[nH]n3)n2)C(=O)Nc2nc(-c3nn(Cc4ccccc4F)c4cc(Cl)ccc34)nc(N)c21 (single isomer, unassigned) [Example 253A, 5-[6-(2H-tetrazol-5-yl)pyridin-2-yl]-4-amino-2-[6-chloro-1-(2-fluorobenzyl)-1H-indazol-3-yl]-5-methyl-5,7-dihydro-6H-pyrrolo[2,3-d]pynmidin-6-one] | 96.7
10 | CC1(c2ccc(CCS(=O)(=O)O)cc2)C(=O)Nc2nc(-c3nn(Cc4ccccc4F)c4cc(Cl)ccc34)nc(N)c21 (single isomer, unassigned) [Example 258B, 2-(4-{4-Amino-2-[6-chloro-1-(2-fluorobenzyl)-1H-indazol-3-yl]-5-methyl-6-oxo-6,7-dihydro-5H-pyrrolo[2,3-d]pyrimidin-5-yl}phenyl)ethanesulfonic acid] | 98.2
11 | CC1(N2CCC(CCC(=O)O)C2)C(=O)Nc2nc(-c3nn(Cc4ccccc4F)c4cc(Cl)ccc34)nc(N)c21 (single isomer, unassigned) [Example 261C, 3-[1-{4-Amino-2-[6-chloro-1-(2-fluorobenzyl)-1H-indazol-3-yl]-5-methyl-6-oxo-6,7-dihydro-5H-pyrrolo[2,3-d]pyrimidin-5-yl}pyrrolidin-3-yl]propanoic acid] | 113
12 | CC(C)(Cc1csc(C2(C3CC3)C(=O)Nc3nc(-c4nn(CCCC(F)(F)F)c5ncc(F)cc45)nc(N)c32)n1)C(=O)O (stereo not drawn) [Example 96B, 3-(2-{4-amino-5-cyclopropyl-2-[5-fluoro-1-(4,4,4-trifluorobutyl)-1H-pyrazolo[3,4-b]pyridin-3-yl]-6-oxo-6,7-dihydro-5H-pyrrolo[2,3-d]pyrimidin-5-yl}thiazol-4-yl)-2,2-dimethylpropanoic acid] | 54

Same assay, conditions: activity expressed as a percentage of compound A (standard)

Row | SMILES | % Activation [%]
13 | C[C@@]1(c2ccc(CCc3noc(=O)[nH]3)cc2)C(=O)Nc2nc(-c3nn(Cc4ccccc4F)c4cc(Cl)ccc34)nc(N)c21 [Example 256B, (S)-4-Amino-2-[6-chloro-1-(2-fluorobenzyl)-1H-indazol-3-yl]-5-methyl-5-{4-[2-(5-oxo-4,5-dihydro-1,2,4-oxadiazol-3-yl)ethyl]phenyl}-5,7-dihydro-6H-pyrrolo[2,3-d]pyrimidin-6-one] | 104.4

Same assay, conditions: inflection point (IP) from 4P fit of percent activation

Row | SMILES | EC50 [µM]
14 | CC(C)(Cc1csc(C2(C3CC3)C(=O)Nc3nc(-c4nn(CCCC(F)(F)F)c5ncc(F)cc45)nc(N)c32)n1)C(=O)O (stereo not drawn) [Example 96B, 3-(2-{4-amino-5-cyclopropyl-2-[5-fluoro-1-(4,4,4-trifluorobutyl)-1H-pyrazolo[3,4-b]pyridin-3-yl]-6-oxo-6,7-dihydro-5H-pyrrolo[2,3-d]pyrimidin-5-yl}thiazol-4-yl)-2,2-dimethylpropanoic acid] | 0.311

Target: human recombinant sGC enzyme (Homo sapiens (Human), UniProt Q02108+Q02153)
Assay: Size Exclusion Chromatography (SEC) competition binding assay using [3H] Ex-77B as the radioligand
Conditions: [3H] Ex-77B radioligand, 24 hours at 37° C., 300 μM DETA/NO
Protocol: Binding Assay: The binding potencies of sGC compounds to the human recombinant sGC enzyme were determined in a Size Exclusion Chromatography (SEC) competition binding assay using [^3H] Ex-77B as the radioligand. [^3H] […] The parent (non-labeled) molecule was first iodinated then a Pd-catalyzed iodine to tritium exchange provided the labeled compound. […] Assays were conducted in 96-well plates in a total volume of 200 μL. […] Non-specific binding was defined by competition with 1 μM of Ex-77B. After the incubation period, the binding mixtures were loaded onto the gel-filtration plate (ThermoFischer Cat. No. 89808) pre-equilibrated with binding buffer and spun at 1000×g for 3 min at 4° C. on a Bench top centrifuge. The collected eluates in White Frame Clear Well Isoplates (Perkin Elmer Cat #6005040) received 100 μl of UltimaGold scintillation cocktail. The sealed plates were shaken vigorously and span, and counted after 6 hours with a Wallac Microbeta TriLux 1450 LSC & Luminescence Counter (Perkin Elmer).

Row | SMILES | Ki [µM]
15 | CC(C)(Cc1csc(C2(C3CC3)C(=O)Nc3nc(-c4nn(CCCC(F)(F)F)c5ncc(F)cc45)nc(N)c32)n1)C(=O)O (stereo not drawn) [Example 96B, 3-(2-{4-amino-5-cyclopropyl-2-[5-fluoro-1-(4,4,4-trifluorobutyl)-1H-pyrazolo[3,4-b]pyridin-3-yl]-6-oxo-6,7-dihydro-5H-pyrrolo[2,3-d]pyrimidin-5-yl}thiazol-4-yl)-2,2-dimethylpropanoic acid] | 0.0122
